Source: US9056865B2, “Pyridine-2-derivatives as smoothened receptor modulators” (Pfizer Inc., priority 2010, dated 2015)

How the values were obtained:
[1] = biological target: human Smo (Homo sapiens (Human), UniProt Q99835); experiment: Smo radioligand competition binding assay; settings: for inhibition at 0.05 µM: 0.05 μM test compound, read-out: Smo % inh. @ 0.05 μM
Protocol: Smo Radioligand Competition Binding Assay
Membranes were prepared from a stable cell line created in HEK293FlpIn-TetR cells (Invitrogen) using Flp recombinase-mediated insertion of the pSecTag-FRT/V5-His vector containing a cDNA encoding amino acids […] of human Smo fused to the murine Igk leader sequence to produce a cell surface expressed Smo 181-781 protein. Hygromycin-resistant clones were obtained and stained for LacZ expression (no expression indicates a correct knock-in of fusion cDNA). LacZ-negative cells were analyzed for binding tritiated Smo antagonists. For membrane preparation, the HEK293 cells expressing Smo 181-781 were grown to 90% confluence in nine to fifteen 245 mm×245 mm×22 mm dishes, washed with Dulbecco's PBS (15 mL per dish) and harvested via scraping in 10 mL of DPBS. The cells were collected and centrifuged at 1500 rpm (400×g) for 10 min at 4° C. The cell pellets were re-suspended in 40 mL of cold DPBS and washed by centrifugation at 2300 rpm (950×g max) for 10 minutes at 4° C. The supernatant was aspirated and the cell pellet was snap frozen in a methanol/dry ice bath and stored at −70° C. For membrane preparation, 15 mL of Membrane Preparation Buffer (50 mM Tris-HCl pH 7.5, 250 mM sucrose with Roche complete protease cocktail tablets) was added to the tube containing the cell pellet, then cells are rapidly thawed, and homogenized using an Ultra-Turrax T8 (IKA Labortechnik) set on “6” for 15 seconds for 5-6 times in icy water bath. This homogenate was diluted up to 50 mL using Membrane Preparation Buffer and centrifuged at 35,000 rpm in a Beckman Ti45 rotor (140,000×g) for 35 minutes at 4° C. followed by aspiration of the supernatant and re-suspension of the pellet in 5 mL of Assay Buffer (50 mM Tris-HCl pH 7.5, 100 mM NaCl, 25 mM MgCl2, 1 mM EDTA, and 0.1% protease free bovine serum albumin). The re-suspended pellet was then homogenized in a glass tissue grinder. The re-suspended membranes were aliquoted (0.5 mL aliquots), snap frozen and stored at −70° C. Total protein in the membrane preparation was determined using the Pierce BCA protein assay (Pierce Chemical).
For the binding competition assay, 100 μL of Assay Buffer was added to all the wells of a 96 well GF/B filter plate (Millipore MultiScreen-HTS-FB cat# MSFBN6B50) for 10 minutes to pre-wet the filter prior to evacuation of the buffer (8 inches Hg for 8 seconds). To the pre-wet wells is added: 20 μL of Assay Buffer, 10 μL diluted test agent, 20 μL of a tritiated Smo antagonist (15 nM stock solution), and 50 μL of membrane preparation (40 μg total protein per well). The plates are sealed and mixed at room temperature for 5 min, incubated at room temperature for 2 hours, then washed 5 times with 100 μL/each of wash buffer and vacuum dried for 8 seconds at 8 inches Hg. The plate is then dried for one hour in a 60° C. oven prior to the addition of 45 μL of Microscint 20 (Packard, #6013621) to each well and incubation at RT for 30 minutes to 1 hour. The plate is counted in a TopCount scintillation counter (Perkin Elmer).
Data analysis uses Excel for % Inhibition and Graphpad Prism for IC50 calculation. Total binding (TB, in the absence of inhibitors)=average of tritiated Smo antagonist 3 nM+Smo membrane (40 μg/wells (approx 5000-7000 CPM)). Non-specific binding (NSB)=average of tritiated Smo antagonist (3 nM)+cold Smo antagonist (30 μM)+Smo membrane (approx 600-1200 CPM). Specific binding (SB)=(total binding−non-specific binding). % Inhibition=[1−(compound Specific binding/control Specific binding)]×100%. IC50 is calculated by fitting the data to the four parameter sigmoidal dose-response curve (variable slope) Y=Bottom+(Top-Bottom)/(1+10^((LogEC50−X)*HillSlope)). X is the logarithm of the inhibitor concentration. Y is the response; Y starts at Bottom and goes to Top with a sigmoid shape.

[2] = tested on: Gli-Luc/MEF cells; experiment: Gli-Luc/MEF assay; assay type: cell-based, mouse; settings: Mus musculus, MEF; Shh-stimulated luciferase, 48 hours
Protocol: The Gli-Luc/MEF cells obtained from Gli-Luc transgenic mice contain a luciferase reporter gene under the control of the Gli response element. Luciferase activity stimulated with Sonic hedgehog ligand was inhibited by Smo inhibitors, and IC50 was subsequently calculated.
Plates were incubated at 37° C. and 5% CO2 overnight. On day two, cells were dosed with test compounds at a final concentration ranging from 3 μM to 50 μM at a 3-time series dilution. Immediately after dosing cells with compounds, recombinant mouse sonic hedgehog (Shh, R&D Systems 464-SH) was added to a final concentration of 2 μg/mL. The cells were incubated with compounds and Shh for 48 hours at 37° C. and 5% CO2. Luciferase assays were conducted on Day 4 using the Bright-Glo Luciferase assay system (Promega E2620) according to Promega's protocol. Briefly, Bright-Glo luciferase reagent was made up and 25 μL were added to each well of the 384-well plate containing media. Plates were kept at room temperature for 5 minutes, and then read on an Envision Luminescence plate reader (Perkin-Elmer). IC50 of the inhibition was calculated by using GraphPad Prism.

Chain of human Smo (Q99835 181-787): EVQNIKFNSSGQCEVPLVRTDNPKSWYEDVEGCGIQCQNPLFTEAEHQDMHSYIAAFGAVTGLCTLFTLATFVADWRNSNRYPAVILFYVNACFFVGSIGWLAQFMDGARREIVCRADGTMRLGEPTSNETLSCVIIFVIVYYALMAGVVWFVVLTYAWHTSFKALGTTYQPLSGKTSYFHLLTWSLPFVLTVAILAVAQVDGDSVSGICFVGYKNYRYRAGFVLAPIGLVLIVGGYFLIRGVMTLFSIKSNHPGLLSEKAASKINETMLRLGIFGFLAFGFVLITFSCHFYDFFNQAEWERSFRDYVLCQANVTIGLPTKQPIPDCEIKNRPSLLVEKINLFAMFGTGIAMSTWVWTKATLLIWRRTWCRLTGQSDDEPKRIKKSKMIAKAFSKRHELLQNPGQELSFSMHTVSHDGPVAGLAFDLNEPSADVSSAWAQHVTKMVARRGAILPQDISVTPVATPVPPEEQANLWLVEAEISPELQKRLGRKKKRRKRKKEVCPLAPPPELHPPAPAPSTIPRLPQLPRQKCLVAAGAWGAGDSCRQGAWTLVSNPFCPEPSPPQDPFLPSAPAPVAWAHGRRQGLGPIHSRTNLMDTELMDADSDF

Row | SMILES | IC50 [1] [nM] | inhibition at 0.05 µM [1] [%] | IC50 [2] [nM]
1 | O=S(=O)(CCO)NC1CCN(c2ccc(Cl)c(-c3ccccn3)n2)CC1 [Example A-126, N-[1-(3-chloro-2,2′-bipyridin-6-yl)piperidin-4-yl]-2-hydroxyethanesulfonamide] | 15.2 | 96.1 | 10.3
2 | Cc1cnc(-c2cc(N3CCN(C(=O)CC(C)(C)O)CC3)ncc2Cl)c(C)c1 [Example A-103, 4-[4-(5′-chloro-3,5-dimethyl-2,4′-bipyridin-2′-yl)piperazin-1-yl]-2-methyl-4-oxobutan-2-ol] | 19.4 | 98 | 11.7
3 | COCCOCC1CCN(c2cc(-c3ncccc3C)c(Cl)cn2)CC1 [Example A-37, 5′-chloro-2′-{4-[(2-methoxyethoxy)methyl]piperidin-1-yl}-3-methyl-2,4′-bipyridine] | 209 | 71.6 | 98
4 | Cc1cccnc1-c1cc(N2CCC3(CC2)CN(C)C(=O)O3)ncc1Cl [Example A-20, 8-(5′-chloro-3-methyl-2,4′-bipyridin-2′-yl)-3-methyl-1-oxa-3,8-diazaspiro[4.5]decan-2-one] | 407 | 64.6 | 109
5 | Cc1cccnc1-c1cc(N2CCC(C(=O)N[C@H]3CC[C@H](CO)CC3)CC2)ncc1Cl [Example A-89, 1-(5′-chloro-3-methyl-2,4′-bipyridin-2′-yl)-N-[trans-4-(hydroxymethyl)cyclohexyl]piperidine-4-carboxamide] | 28.5 | 94.6 | 24.4
6 | Cc1cccnc1-c1cc(N2CCN(C(=O)CCS(C)(=O)=O)CC2)ncc1Cl [Example A-93, 5′-chloro-3-methyl-2′-{4-[3-(methylsulfonyl)propanoyl]piperazin-1-yl}-2,4′-bipyridine] | 9.84 | 97.5 | 12.4
7 | Cc1cccnc1-c1cc(N2CCC(C(=O)N3CCCC(O)C3CO)CC2)ncc1Cl (centres unmarked) [Example A-86, 1-{[1-(5′-chloro-3-methyl-2,4′-bipyridin-2′-yl)piperidin-4-yl]carbonyl}-2-(hydroxymethyl)piperidin-3-ol] | 112 | 81.5 | 116
8 | Cc1cccnc1-c1cc(N2[C@@H]3CC[C@H]2CN(C(=O)CC(C)(C)O)C3)ncc1Cl [Example A-107, 1-[(1R,5S)-8-(5′-chloro-3-methyl-2,4′-bipyridin-2′-yl)-3,8-diazabicyclo[3.2.1]oct-3-yl]-3-hydroxy-3-methylbutan-1-one] | – | 82.7 | 41.5
9 | Cc1cnc(-c2cc(N3CCC(CS(C)(=O)=O)CC3)ncc2Cl)c(C)c1 [Example A-98, 5′-chloro-3,5-dimethyl-2′-{4-[(methylsulfonyl)methyl]piperidin-1-yl}-2,4′-bipyridine] | 12.4 | 96.6 | 9.4
10 | COCCS(=O)(=O)N1CCN(c2cc(-c3ncc(C)cc3C)c(Cl)cn2)CC1 [Example A-110, 5′-chloro-2′-{4-[(2-methoxyethyl)sulfonyl]piperazin-1-yl}-3,5-dimethyl-2,4′-bipyridine] | 29.2 | 94.4 | 12.4
11 | COCC(=O)N1CCN(c2cc(-c3ncccc3C)c(Cl)cn2)CC1 [Example A-28, 5′-chloro-2′-[4-(methoxyacetyl)piperazin-1-yl]-3-methyl-2,4′-bipyridine] | 212 | 68.9 | 146
12 | CS(=O)(=O)CCC(=O)NC1CCN(c2ccc(Cl)c(-c3ccccn3)n2)CC1 [Example A-128, N-[1-(3-chloro-2,2′-bipyridin-6-yl)piperidin-4-yl]-3-(methylsulfonyl)propanamide] | 31.3 | 95 | 15.2
13 | Cc1cccnc1-c1cc(N2CCC(C(=O)NCCc3c[nH]cn3)CC2)ncc1Cl [Example A-87, 1-(5′-chloro-3-methyl-2,4′-bipyridin-2′-yl)-N-[2-(1H-imidazol-4-yl)ethyl]piperidine-4-carboxamide] | 134 | 81.8 | 123
14 | Cc1cccnc1-c1cc(N2CCC(C(=O)NCCC3C(=O)Nc4ccccc43)CC2)ncc1Cl (centres unmarked) [Example A-61, 1-(5′-chloro-3-methyl-2,4′-bipyridin-2′-yl)-N-[2-(2-oxo-2,3-dihydro-1H-indol-3-yl)ethyl]piperidine-4-carboxamide] | 40.9 | 91.9 | 37.1
15 | Cc1cccnc1-c1cc(N2CCC(C(=O)N3CCCC[C@H]3CO)CC2)ncc1Cl [Example A-85, [(2S)-1-{[1-(5′-chloro-3-methyl-2,4′-bipyridin-2′-yl)piperidin-4-yl]carbonyl}piperidin-2-yl]methanol] | 42.4 | 92.7 | 116
16 | Cc1cccnc1-c1cc(N2CCC(C(=O)NC3(c4ccccn4)CC3)CC2)ncc1Cl [Example A-55, 1-(5′-chloro-3-methyl-2,4′-bipyridin-2′-yl)-N-(1-pyridin-2-ylcyclopropyl)piperidine-4-carboxamide] | 63.3 | 83.7 | 25.2
17 | Cc1cc(F)cnc1-c1cc(N2CCC(NS(=O)(=O)CC(C)(C)O)CC2)ncc1Cl [Example A-153, N-[1-(5′-chloro-5-fluoro-3-methyl-2,4′-bipyridin-2′-yl)piperidin-4-yl]-2-hydroxy-2-methylpropane-1-sulfonamide] | 10.6 | 96.4 | 4.71
18 | Cc1cccnc1-c1cc(N2CCC(C(=O)N3CC(S(=O)(=O)CC4CC4)C3)CC2)ncc1Cl [Example A-62, 5′-chloro-2′-[4-({3-[(cyclopropylmethyl)sulfonyl]azetidin-1-yl}carbonyl)piperidin-1-yl]-3-methyl-2,4′-bipyridine] | 234 | 72.4 | 106
19 | CC(=O)NC1CCN(c2cc(-c3ncccc3C)c(Cl)cn2)CC1 [Example A-35, N-[1-(5′-chloro-3-methyl-2,4′-bipyridin-2′-yl)piperidin-4-yl]acetamide] | 199 | 70.6 | 67.7
20 | Cc1cnc(-c2cc(N3CCN(C(=O)CO)CC3)ncc2Cl)c(C)c1 [Example A-102, 2-[4-(5′-chloro-3,5-dimethyl-2,4′-bipyridin-2′-yl)piperazin-1-yl]-2-oxoethanol] | 57.9 | 84 | 60.1
